From article PMC4821601, “The Interactions of P-Glycoprotein with Antimalarial Drugs, Including Substrate Affinity, Inhibition and Regulation” (PLoS ONE, 2016)

Columns and labels:
P-gp = settings: 20 μM, 96 hours, Caco-2, western blot vs control
Protocol: Caco-2 cells were seeded in 6 well plates at 10,000 cells/cm^2 for 21 days. Drugs and drug combinations at 20 μM prepared in cell growth medium were added on to the mature cells and exposed for 96 hours. After drug exposure, cells were washed three times using PBS and cell lysate was prepared in lysis buffer. The protein content was quantified using the 96 well micro-Lowry protein assay and regulation of P-gp was determined using western blotting.
The membrane was blocked using 2% casein in TBS and washed with TBST. The primary antibody; Mdr (G-1) mouse monoclonal IgG2b 200 and mouse anti-β actin were used as the antibody for β-actin, the reference protein. The antibody; HRP linked goat anti mouse IgG was used as the secondary antibody. The washed membrane was incubated in a BioRad clarity chemiluminescent substrate and enhancer was read and semi quantified using the BIORAD Chemidoc MPT imager with Image LabTM software.

P-glycoprotein (P-gp) = biological target: T1, P-glycoprotein (P-gp) (Homo sapiens, UniProt P08183); experiment: Bidirectional transport of rhodamine123 through Caco-2 monolayers co-incubated with antimalarials (P-gp inhibitory properties); format: in vitro ADME; settings: at 100 μM
T1 construct: In-vitro Caco-2 cell monolayers were used here as a model for potential drug absorption related problems and P-gp mediated transport of drugs; endogenous in cells; host or cells: Caco-2 (human colon carcinoma, ATCC)
T1 sequence (P08183 whole entry): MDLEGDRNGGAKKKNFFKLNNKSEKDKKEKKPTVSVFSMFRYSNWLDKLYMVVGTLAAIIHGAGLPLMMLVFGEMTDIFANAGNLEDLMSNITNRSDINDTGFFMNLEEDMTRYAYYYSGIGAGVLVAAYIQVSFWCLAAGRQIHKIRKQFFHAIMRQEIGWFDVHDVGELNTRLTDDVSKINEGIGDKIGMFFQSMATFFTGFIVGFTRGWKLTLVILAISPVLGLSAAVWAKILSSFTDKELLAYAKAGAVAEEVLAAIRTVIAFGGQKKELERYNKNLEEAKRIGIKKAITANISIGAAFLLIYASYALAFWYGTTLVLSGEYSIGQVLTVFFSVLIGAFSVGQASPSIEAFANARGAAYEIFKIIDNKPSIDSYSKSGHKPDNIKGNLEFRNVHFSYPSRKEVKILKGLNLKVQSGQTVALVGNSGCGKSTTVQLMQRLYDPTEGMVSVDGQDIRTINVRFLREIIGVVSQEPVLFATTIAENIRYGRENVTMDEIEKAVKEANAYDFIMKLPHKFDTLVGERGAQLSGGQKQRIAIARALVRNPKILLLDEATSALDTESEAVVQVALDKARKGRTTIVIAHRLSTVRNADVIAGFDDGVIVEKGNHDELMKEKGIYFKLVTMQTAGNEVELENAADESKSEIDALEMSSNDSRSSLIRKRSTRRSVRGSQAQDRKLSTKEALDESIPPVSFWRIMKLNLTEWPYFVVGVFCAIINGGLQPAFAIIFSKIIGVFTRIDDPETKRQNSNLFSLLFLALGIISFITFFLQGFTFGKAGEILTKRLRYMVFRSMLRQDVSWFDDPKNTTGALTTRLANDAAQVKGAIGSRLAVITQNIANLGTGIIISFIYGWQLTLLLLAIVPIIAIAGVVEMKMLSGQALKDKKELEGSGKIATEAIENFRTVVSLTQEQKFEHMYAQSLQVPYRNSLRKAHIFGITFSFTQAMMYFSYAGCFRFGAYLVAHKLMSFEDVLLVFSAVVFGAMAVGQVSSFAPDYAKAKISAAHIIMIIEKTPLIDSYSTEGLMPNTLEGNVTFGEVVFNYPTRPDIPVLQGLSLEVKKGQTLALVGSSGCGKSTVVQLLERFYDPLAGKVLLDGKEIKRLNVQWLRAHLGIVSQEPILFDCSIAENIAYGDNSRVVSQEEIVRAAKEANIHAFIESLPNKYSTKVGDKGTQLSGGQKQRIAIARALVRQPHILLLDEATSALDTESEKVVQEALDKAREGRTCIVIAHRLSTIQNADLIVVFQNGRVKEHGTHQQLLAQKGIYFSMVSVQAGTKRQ
Protocol: The Caco-2 cells were seeded on 0.6 cm^2 […] Millipore PCF™ filter inserts at the cell density of 65,000 cells/cm^2 as done previously in the lab. Briefly, the cells were grown for 21–24 days to allow full maturation and formation of tight monolayers. The initial experiments were conducted in mid-40s passage cells and repeated in early 80s passage Caco-2 cells. The Trans epithelial electrical resistance (TEER) was measured immediately before and after the experiment using an epithelial voltage/ohm meter and an ENDOHM 12 chamber (World precision instruments, Sarasota, FL). TEER values were measured both before and after the study with readings above 300 Ω.cm^2 considered as acceptable for tight junctions. […] In order to maintain equivalent transport medium (HBSS/HBSS with inhibitor) level both outside and inside the chambers, 300 μL was used as medium in the apical chambers and 600 μL in the basolateral chambers. […] Drugs were co-incubated with MRCP, BCRP and ATP hydrolysis blockers to determine the involvement of other efflux mechanisms. Prior to the experiment, the transport medium, HBSS or HBSS with P-gp inhibitors were pre-incubated with the cells for 30 minutes. Following incubation, inserts were placed in new well plates and donor chamber is replaced with drug or drug with inhibitor and the receiver chamber with blank HBSS or HBSS with inhibitor. Transport medium was collected from the receiver chamber after stirring at time intervals of 30, 60, 90 and 120 minutes and was replaced with the same volume of fresh HBSS, or HBSS with inhibitor, when P-gp inhibitors were used in the study. At the end of the experiment 100 μL of medium was removed from the donor chamber in addition to medium collected from the receiver chamber during the study. The cells were then washed thoroughly in cold (4°C) PBS and cell membranes attached to the inserts were sonicated for 10 minutes in a sonicating water bath and centrifuged at 10,000 g for 10 minutes. Supernatant was frozen at -80°C until assayed. The Papp values of three well plates were determined using methods modified from Artursson’s group as described by Crowe and Lemaire.
CL.vol=Aa/{[Cd0×Vd−[Aa+(Ca×Vs)]−(Ac)×n/nfin]/Vd}
CL.vol = clearance volume (mL), n = time (min), Aa = amount in acceptor compartment at time n (pmols), Cd0 = concentration in donor compartment at time zero (nM), Vd = volume of the donor compartment (mL), Ca = concentration in acceptor compartment at the previous time point (nM), Vs = sample volume of previous time point (mL), Ac = amount of compound associated with the cells (pmol), Nfin = final time point (min). Papp = Apparent permeability (cm/sec) Rate of clearance (mL/min)=CL.vol / n Papp (cm/sec)=Rate of clearance / Surface area (cm^2)
The cleared volume was plotted against time and the slope of the regression line was divided by the surface area to obtain the Papp values. […] Mean Papp for Bas-Ap direction was divided by the Ap-Bas direction to obtain the efflux ratio and values above two were considered as drugs having true efflux transport.

For `OC(c1cc(C(F)(F)F)nc2c(C(F)(F)F)cccc12)C1CCCCN1` (stereo not drawn) [MQ, mefloquine], the “regulation of P-gp expression” value (P-gp) was “not observed”, the P-gp inhibitory properties (P-glycoprotein (P-gp)) was “P-gp inhibitory properties” and the inhibition at 120 min, 100 µM (P-glycoprotein (P-gp); human, Caco-2 cell monolayers, probe rhodamine 123, read-out: inhibition of efflux driven transport) was ~50%.
